# Assays:
# [1] = tested on: IL-12p40 production; assay: In vitro inhibition of IL-12p40 production in human blood (LPS-stimulated whole blood, sandwich ELISA); type: cell-based; settings: lipopolysaccharide 100 ng/ml, 24 hours, read-out: % inhib. IL-12 (p40); for inhibition at 1 µM: test dose 1 × 10^−6 M
# Experimental: (§1) Peripheral blood from healthy male donors was drawn into heparinized syringes (12.5 U heparin/ml). Blood samples were three-fold diluted in RMPI 1640 medium (Life Technologies, Belgium) supplemented with 2 mM L-glutamine, 100 U/ml penicillin and 100 μg/ml streptomycin, and 300 μl fractions were distributed in 24-well multidisc plates (Nunc, Roskilde, Denmark). Blood samples were preincubated (60 minutes at 37° C.) in a humidified 6% CO2-atmosphere with 100 μl of drug solvent (final concentration 0.02% dimethylsulfoxide in RPMI 1640) or with 100 μl of an appropriate dose of test compound before being stimulated by the addition of 100 μl of lipopolysaccharide at a final concentration of 100 ng/ml. After 24 hours, cell-free supernatant fluids were collected by centrifugation and stored at −20° C. until tested for the presence of IL-12p40.
# (§2) Cytokine protein concentrations were determined by sandwich ELISA as described in Van Wauwe et al. (1996, Inflamm Res, 45, 357-363). Murine monoclonals used as capture antibodies to human cytokines were obtained from R&D Systems (Abingdon, United Kingdom) and code named MAB210 and MAB611 for TNF-α and IL-12 respectively. Biotinylated goat polyclonal antibodies used to detect human cytokines were from R&D Systems (BAF210, BAF219). Cytokine levels were calculated from standard curves using recombinant cytokines supplied by R&D Systems.
# [2] = tested on: TNF-α production; assay: In vitro inhibition of TNF-α production in human blood (LPS-stimulated whole blood, sandwich ELISA); type: cell-based; settings: lipopolysaccharide 100 ng/ml, 6 hours, read-out: % inhib. TNF-α
# Experimental: as §1, with “After 6” for “After 24”, “of TNF-α.” for “of IL-12p40.”
# as §2
SMILES,inhibition at 1 µM [1] [%],inhibition at 0.1 µM ([1]; test dose 1 × 10^−7 M) [%],inhibition at 1 µM ([2]; test dose 1 × 10^−6 M) [%],inhibition at 0.1 µM ([2]; test dose 1 × 10^−7 M) [%],melting point [°C]
CC(O)c1sc(Nc2cccc(C(F)(F)F)c2)nc1-c1cccnc1 (stereo not drawn) [Compound 14],52,,,,
Fc1sc(Nc2cccc(C(F)(F)F)c2)nc1-c1cccnc1 [Compound 1],54,56,60,58,208 to 210

# — US7803823B2, “2-amino-4,5-trisubstituted thiazolyl derivatives” (Janssen Pharmaceutica NV, priority 2001, dated 2010)
